These results are taken from ChEMBL document CHEMBL1130057, “Tyrosine kinase inhibitors. 12. Synthesis and structure-activity relationships for 6-substituted 4-(phenylamino)pyrimido[5,4-d]pyrimidines designed as inhibitors of the epidermal growth factor receptor” (J Med Chem, 1997).

Assay [1] has as its target T1, Epidermal growth factor receptor (Homo sapiens, UniProt P00533). The experiment in a line: Inhibition of phosphorylation of phospholipase C gamma1 by Epidermal growth factor receptor, from human A431 carcinoma cell vesicles.
Assay [2] addresses T1, Epidermal growth factor receptor. The experiment in a line: Tested for ability to inhibit autophosphorylation of the Epidermal growth factor receptor in human epidermoid carcinoma cells.
For assay [3] the target is unchanged. Put plainly: Tested for inhibition of PLC gamma-derived substrate in Epidermal growth factor receptor stimulated A431 cells.
Assay [4] shares this target. Put plainly: Tested for inhibition of autophosphorylation in Epidermal growth factor receptor stimulated A431 cells.

As usually defined, the IC50 is the concentration needed to halve the response being measured.

T1 sequence (P00533 whole entry): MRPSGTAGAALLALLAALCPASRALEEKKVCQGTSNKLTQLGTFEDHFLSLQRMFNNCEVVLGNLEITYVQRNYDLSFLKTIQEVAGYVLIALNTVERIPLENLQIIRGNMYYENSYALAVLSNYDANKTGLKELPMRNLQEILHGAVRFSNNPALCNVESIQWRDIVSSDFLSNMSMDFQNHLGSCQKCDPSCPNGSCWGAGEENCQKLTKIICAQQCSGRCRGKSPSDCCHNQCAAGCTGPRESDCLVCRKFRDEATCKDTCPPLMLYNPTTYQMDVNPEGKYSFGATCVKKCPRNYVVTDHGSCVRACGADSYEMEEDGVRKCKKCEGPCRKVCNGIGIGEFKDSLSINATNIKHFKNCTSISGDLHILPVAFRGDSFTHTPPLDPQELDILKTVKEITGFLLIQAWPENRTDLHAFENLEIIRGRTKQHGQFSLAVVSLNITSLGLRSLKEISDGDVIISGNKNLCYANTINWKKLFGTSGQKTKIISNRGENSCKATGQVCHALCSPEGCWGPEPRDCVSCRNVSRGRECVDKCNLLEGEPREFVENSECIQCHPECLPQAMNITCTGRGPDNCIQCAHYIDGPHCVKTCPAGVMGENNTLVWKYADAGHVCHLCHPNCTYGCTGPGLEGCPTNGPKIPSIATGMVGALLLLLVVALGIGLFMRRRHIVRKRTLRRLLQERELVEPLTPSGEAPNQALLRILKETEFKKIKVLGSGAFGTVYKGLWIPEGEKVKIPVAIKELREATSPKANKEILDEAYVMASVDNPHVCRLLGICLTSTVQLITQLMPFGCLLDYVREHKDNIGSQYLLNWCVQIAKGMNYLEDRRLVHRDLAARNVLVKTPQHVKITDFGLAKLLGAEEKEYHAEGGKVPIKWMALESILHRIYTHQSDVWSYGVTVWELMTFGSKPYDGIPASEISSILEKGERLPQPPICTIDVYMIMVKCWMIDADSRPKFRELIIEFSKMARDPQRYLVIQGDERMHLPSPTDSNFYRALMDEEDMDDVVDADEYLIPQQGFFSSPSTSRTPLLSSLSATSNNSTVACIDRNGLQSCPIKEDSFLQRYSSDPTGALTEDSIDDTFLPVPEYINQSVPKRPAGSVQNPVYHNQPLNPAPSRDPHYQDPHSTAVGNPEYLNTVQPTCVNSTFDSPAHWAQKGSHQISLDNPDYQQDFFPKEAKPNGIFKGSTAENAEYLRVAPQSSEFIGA

In turn, `Cc1cccc(Nc2ncnc3cnc(N(C)C)nc23)c1` gave a concentration for half-maximal inhibition (IC50) in assay [1] of 4 nM.

As for `Clc1ncc2ncnc(Nc3ccccc3)c2n1`, the half-maximal inhibitory concentration (IC50) in assay [1] amounted to 2550 nM. On the same count and under the same terms, with `CNc1ncc2ncnc(Nc3ccccc3)c2n1` the figure was 13 nM. In the case of `CNc1ncc2ncnc(Nc3cccc(Br)c3)c2n1`, the IC50 in assay [1] was 0.76 nM; in assay [2], 30 nM.

In assay [1], `Cc1cccc(Nc2ncnc3cnc(Cl)nc23)c1` returned an IC50 of 380 nM. With `CNc1ccc2ncnc(Nc3cccc(Br)c3)c2c1`, the IC50 in assay [3] turned out to be 11 nM.

With `Brc1cccc(Nc2ncnc3cnc(NCCc4c[nH]cn4)nc23)c1`, the IC50 in assay [1] worked out at 0.25 nM; in assay [2], 5.1 nM.

In the case of `Cc1cccc(Nc2ncnc3cnc(NCCc4c[nH]cn4)nc23)c1`, the IC50 in assay [1] was found to be 3 nM. `Clc1ncc2ncnc(Nc3cccc(Br)c3)c2n1` gave an IC50 in assay [1] of 82 nM. Compared with the last compound, the IC50 is about 27-fold higher.

For `Cc1cccc(Nc2ncnc3cnc(NCCN4CCOCC4)nc23)c1`, in assay [1], inhibition was half-maximal at 2.3 nM (IC50).

For `COc1ncc2ncnc(Nc3cccc(Br)c3)c2n1`, the IC50 in assay [1] was 3.8 nM. Compared with the last compound, the IC50 is about 1.7-fold higher. As for `Brc1cccc(Nc2ncnc3cnc(NCCN4CCOCC4)nc23)c1`, the half-inhibitory concentration (IC50) in assay [1] was 0.81 nM; in assay [2], 3.1 nM. Turning to `Nc1ncc2ncnc(Nc3cccc(Br)c3)c2n1`, inhibition in assay [1] was half-maximal at 1.5 nM (IC50). That is a single-digit nanomolar value. For the compound `CN(C)c1cc2c(Nc3cccc(Br)c3)ncnc2cn1`, the IC50 in assay [4] turned out to be 12 nM; in assay [3], 2.6 nM. Consider `Cc1cccc(Nc2ncnc3cnc(N)nc23)c1`, for which half-maximal inhibition in assay [1] (IC50) was put at 17 nM. The same measure, in the same setting: next, `Brc1cccc(Nc2ncnc3cnc(NCCCn4ccnc4)nc23)c1`: 2.3 nM; `CN(C)CCNc1ncc2ncnc(Nc3cccc(Br)c3)c2n1`: 35 nM.
